According to article PMC9871843 (Clinical Kidney Journal, 2022):

Test: Safety and tolerability
Assay type: in vivo, healthy participants (human)
Details: healthy adults, single oral dose
[1] = safety analysis set, by system organ class

For `C=CC[C@@H]1/C=C(\C)C[C@H](C)C[C@H](OC)[C@H]2O[C@@](O)(C(=O)C(=O)N3CCCC[C@H]3C(=O)O[C@H](/C(C)=C/[C@@H]3CC[C@@H](O)[C@H](OC)C3)[C@H](C)[C@@H](O)CC1=O)[C@H](C)C[C@@H]2OC` [Tacrolimus, tacrolimus], the “participants in whom adverse events were reported” value was “seven”, the “Participants with any AE” value (safety analysis set, N as in column head) was 7 (22.6) n (%) and the “Participants with AEs: Cardiac disorders” value [1] was 0 n (%). The “Participants with AEs: Eye disorders” value [1] was 1 (3.2) n (%), the “Participants with AEs: Gastrointestinal disorders” value [1] was 2 (6.5) n (%) and the “Participants with AEs: General disorders and administration site conditions” value [1] was 1 (3.2) n (%). For the same compound, the “Participants with AEs: Infections and infestations” value [1] was 0 n (%), the “Participants with AEs: Injury, poisoning and procedural complications” value [1] was 1 (3.2) n (%) and the “Participants with AEs: Musculoskeletal and connective tissue disorders” value [1] was 1 (3.2) n (%). For the same compound, the “Participants with AEs: Nervous system disorders” value [1] was 3 (9.7) n (%), the “Participants with AEs: Renal and urinary disorders” value [1] was 0 n (%) and the “Participants with AEs: Respiratory, thoracic and mediastinal disorders” value [1] was 0 n (%).
